One test concerns the target cdk4/D (Homo sapiens, UniProt P11802). Kind of test: Cyclin-Dependent Kinase 4 (cdk4) Assay. The class given is biochemical. The conditions noted are these: read-out: cdk4/D IC50.
For the next test, the target named is Cdk5/p25 (Homo sapiens, UniProt Q00535). In words: Cyclin-Dependent Kinase 5 High Throughput Screening (cdk5-HTS) Assay. The class given is biochemical. To be noted: high throughput screen. In outline:
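Cdk5/p25 (1.0 μg/mL) phosphorylates GST-RbCOOH (20 μg/mL) in 50 mM Tris pH 7.4 with 10 mM MgCl2 and 20 μM ATP spiked with [γ33P]ATP, 30 min at room temperature. After EDTA stop, substrate captured on glutathione-coated plates; 33P incorporation counted by scintillation; IC50 determined.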

The next test deals with cdk2/cyclinE (Homo sapiens, UniProt P24941). Kind of test: Cyclin-Dependent Kinase Assay cdk2/cyclinE. To be noted: cdk2/E IC50.
For the next test, the target named is cdk2/cyclinA (Homo sapiens, UniProt P24941). In words: Cyclin-Dependent Kinase Assay cdk2/cyclinA. The conditions noted are these: cdk2/A IC50.
The target in another test is cdc2/cyclinB (Homo sapiens, UniProt P06493). In words: Cyclin-Dependent Kinase Assay cdc2/cyclinB.

Our source for the IC50 values is US20040224958A1, “Pyridopyrimidinone derivatives for treatment of neurodegenerative disease” (priority 2000, published 2004).

Sequence of cdk4/D (P11802 whole entry): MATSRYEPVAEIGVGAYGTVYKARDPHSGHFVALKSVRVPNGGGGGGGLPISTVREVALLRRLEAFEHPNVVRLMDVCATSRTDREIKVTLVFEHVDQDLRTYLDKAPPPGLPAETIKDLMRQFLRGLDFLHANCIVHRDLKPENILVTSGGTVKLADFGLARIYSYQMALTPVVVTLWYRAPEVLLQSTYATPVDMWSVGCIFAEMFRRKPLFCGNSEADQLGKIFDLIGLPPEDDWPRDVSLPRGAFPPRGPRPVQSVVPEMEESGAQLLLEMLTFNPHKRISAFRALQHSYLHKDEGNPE
Sequence of cdk4/D (P24385 whole entry, further chain): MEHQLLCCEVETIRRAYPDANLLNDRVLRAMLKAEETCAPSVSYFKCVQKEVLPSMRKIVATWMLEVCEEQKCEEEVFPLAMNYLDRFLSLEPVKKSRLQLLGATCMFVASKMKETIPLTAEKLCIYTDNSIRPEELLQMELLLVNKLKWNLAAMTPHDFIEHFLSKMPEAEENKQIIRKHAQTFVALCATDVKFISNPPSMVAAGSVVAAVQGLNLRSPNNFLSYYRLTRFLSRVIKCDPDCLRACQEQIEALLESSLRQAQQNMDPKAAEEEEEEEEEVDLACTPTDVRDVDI
Sequence of cdc2/cyclinB (P06493 whole entry): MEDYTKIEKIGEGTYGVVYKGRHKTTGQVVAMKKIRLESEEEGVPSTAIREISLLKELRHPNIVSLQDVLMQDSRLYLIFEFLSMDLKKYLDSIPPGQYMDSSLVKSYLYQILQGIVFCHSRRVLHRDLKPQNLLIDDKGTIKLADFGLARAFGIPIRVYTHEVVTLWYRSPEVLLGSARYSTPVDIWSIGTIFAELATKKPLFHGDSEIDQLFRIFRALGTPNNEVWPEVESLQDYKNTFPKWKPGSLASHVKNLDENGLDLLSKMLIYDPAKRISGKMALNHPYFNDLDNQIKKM
Sequence of cdc2/cyclinB (P14635 whole entry, further chain): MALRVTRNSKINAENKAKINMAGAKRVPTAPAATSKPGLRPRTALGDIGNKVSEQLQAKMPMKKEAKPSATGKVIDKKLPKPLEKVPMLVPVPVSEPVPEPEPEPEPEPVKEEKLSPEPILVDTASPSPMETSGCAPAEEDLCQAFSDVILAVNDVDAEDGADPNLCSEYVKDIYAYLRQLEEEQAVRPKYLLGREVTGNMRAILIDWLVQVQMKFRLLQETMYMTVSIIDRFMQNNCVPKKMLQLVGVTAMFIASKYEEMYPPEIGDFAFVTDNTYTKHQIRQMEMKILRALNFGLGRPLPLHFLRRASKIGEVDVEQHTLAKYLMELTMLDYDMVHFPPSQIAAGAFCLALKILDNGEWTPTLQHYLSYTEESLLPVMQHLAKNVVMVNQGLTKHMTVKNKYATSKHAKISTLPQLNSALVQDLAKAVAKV
Protocol for cdc2/cyclinB: Cyclin-Dependent Kinase Assays (cdk2/cyclinE, cdk2/cyclinA, cdc2/cyclinB)
All components except the ATP were added to the wells, and the plate was placed on a plate mixer for 2 minutes. The reaction was begun by addition of [^32P]ATP, and the plate was incubated at 25° C. for 15 minutes. The reaction was terminated by addition of 0.1 mL of 20% TCA. The plate was kept at 4° C. for at least 1 hour to allow the substrate to precipitate. The wells were then washed five times with 0.2 mL of 10% TCA and ^32p incorporation determined with a beta plate counter (Wallac Inc., Gaithersburg, Md.).

Turning to `CCC(CC)n1c(=O)ccc2cnc(Nc3ccc(C)c(NS(C)(=O)=O)c3)nc21` [Example 519, N-{5-[8-(1-Ethyl-propyl)-7-oxo-7,8-dihydro-pyrido[2,3-d]pyrimidin-2-ylamino]-2-methyl-phenyl}-methanesulfonamide], the IC50 was 150 nM at cdk4/D; 33 nM at Cdk5/p25; 140 nM at cdk2/cyclinE; 310 nM at cdk2/cyclinA; 47 nM against cdc2/cyclinB.
Turning to `CCC(CC)n1c(=O)ccc2cnc(Nc3ccc4c(c3)NC(=O)CS4)nc21` [Example 520, 8-(1-Ethyl-propyl)-2-(3-oxo-3,4-dihydro-2H-1,4-benzothiazin-6ylamino)-8H-pyrido[2,3-d]pyrimidin-7-one], the IC50 on cdk4/D stood at 120 nM; at Cdk5/p25 it was 9.8 nM; on cdk2/cyclinE it was 41 nM; on cdk2/cyclinA, 86 nM; against cdc2/cyclinB, 51 nM.
Turning to `CCC(CC)n1c(=O)ccc2cnc(Nc3cc(Cl)c(N)c(Cl)c3)nc21` [Example 521, 2-(4-Amino-3,5-dichloro-phenylamino)-S-(1-ethyl-propyl)-8H-pyrido[2,3-d]pyrimidin-7-one], the IC50 on cdk4/D was 67 nM; against Cdk5/p25, 42 nM; against cdk2/cyclinE, 98 nM; at cdk2/cyclinA, 220 nM; on cdc2/cyclinB, 67 nM.
Take `CCC(CC)n1c(=O)ccc2cnc(Nc3ccc(C)c(NC(C)=O)c3)nc21` [Example 522, N-{5-[8-(1-Ethyl-propyl)-7-oxo-7,8-dihydro-pyrido[2,3-d]pyrimidin-2-ylamino]-2-methyl-phenyl}-acetamide]: the IC50 on cdk4/D is 360 nM; against Cdk5/p25, 300 nM; against cdk2/cyclinE, 320 nM; on cdk2/cyclinA, 1600 nM; against cdc2/cyclinB it was 1100 nM.
Consider `CCC(CC)n1c(=O)ccc2cnc(Nc3cc(C)c(O)c(C)c3)nc21` [Example 523, 8-(1-Ethyl-propyl)-2-(4-hydroxy-3,5-dimethyl-phenylamino)-8H-pyrido[2,3-d]pyrimidin-7-one], for which the IC50 at cdk4/D is 390 nM; on Cdk5/p25, 28 nM; against cdk2/cyclinE, 46 nM; against cdk2/cyclinA, 160 nM; on cdc2/cyclinB it was 93 nM.
On the same counts, the results for `CCC(CC)n1c(=O)ccc2cnc(Nc3ccc(O)c(C(=O)O)c3)nc21` [Example 524, 5-[8-(1-Ethyl-propyl)-7-oxo-7,8-dihydro-pyrido[2,3-d]pyrimidin-2-ylamino]-2-hydroxy-benzoic acid] are 2000 nM, 290 nM, 450 nM, 650 nM and 620 nM.
As for `CCC(CC)n1c(=O)ccc2cnc(Nc3ccc4c(c3)CCC4)nc21` [Example 525, 8-(I-Ethyl-propyl)-2-(indan-5-ylamino)-8H-pyrido[2,3-d]pyrimidin-7-one], the IC50 amounted to 1200 nM at cdk4/D; 27 nM against Cdk5/p25; 110 nM at cdk2/cyclinE; 290 nM on cdk2/cyclinA; 99 nM on cdc2/cyclinB.
`CCC(CC)n1c(=O)ccc2cnc(Nc3ccc(C(F)(F)F)cc3)nc21` [Example 526, 8-(1-Ethyl-propyl)-2-(4-trifluoromethyl-phenylamino)-8H-pyrido[2,3-d]pyrimidin-7-one]: the IC50 worked out at 85 nM at cdk4/D; 88 nM against Cdk5/p25; 200 nM against cdk2/cyclinE; 160 nM at cdk2/cyclinA; 140 nM on cdc2/cyclinB.
In the case of `O=c1ccc2cnc(Nc3ccc4[nH]ccc4c3)nc2n1C1CCCC1` [Example 528, 8-Cyclopentyl-2-(1H-indol-5-ylamino)-8H-pyrido[2,3-d]pyrimidin-7-one], the IC50 on cdk4/D came to 12.7 nM; against Cdk5/p25, 36.3 nM; at cdk2/cyclinE, 46.5 nM; on cdk2/cyclinA, 74 nM; at cdc2/cyclinB, 34.5 nM.
The corresponding values for `O=c1ccc2cnc(Nc3ccc4cn[nH]c4c3)nc2n1C1CCCC1` [Example 529, 8-Cyclopentyl-2-(1H-indazol-6-ylamino)-8H-pyrido[2,3-d]pyrimidin-7-one] are 31 nM, 32 nM, 24 nM, 35.5 nM and 82.5 nM.
The corresponding values for `O=c1ccc2cnc(Nc3cccc(C(F)(F)F)c3)nc2n1C1CCCC1` [Example 530, 8-Cyclopentyl-2-(3-trifluoromethyl-phenylamino)-8H-pyrido[2,3-d]pyrimidin-7-one] are 1700 nM, 99 nM, 180 nM, 250 nM and 220 nM.
The corresponding values for `N#Cc1ccc(Nc2ncc3ccc(=O)n(C4CCCC4)c3n2)cc1` [Example 531, 4-(8-Cyclopentyl-7-oxo-7,8-dihydro-pyrido[2,3-d]pyrimidin-2-ylamino)-benzonitrile] are 51 nM, 50 nM, 100 nM, 74 nM and 170 nM.
In the case of `O=c1ccc2cnc(Nc3ccc(Cl)c(Cl)c3)nc2n1C1CCCC1` [Example 532, 8-Cyclopentyl-2-(3,4-dichloro-phenylamino)-8H-pyrido[2,3-d]pyrimidin-7-one], the IC50 was found to be 1500 nM at cdk4/D; 210 nM against Cdk5/p25; 630 nM on cdk2/cyclinE; 780 nM at cdk2/cyclinA; 510 nM on cdc2/cyclinB.
As to `O=c1ccc2cnc(Nc3ccc(C(F)(F)F)cc3)nc2n1C1CCCC1` [Example 533, 8-Cyclopentyl-2-(4-trifluoromethyl-phenylamino)-81H-pyrido[2,3-d]pyrimidin-7-one], the IC50 on cdk4/D amounted to 150 nM; against Cdk5/p25 it was 66 nM; against cdk2/cyclinE it was 140 nM; against cdk2/cyclinA, 330 nM; against cdc2/cyclinB, 250 nM.
The corresponding values for `CC(C)(C)OC(=O)Nc1ccc(Nc2ncc3ccc(=O)n(C4CCCC4)c3n2)cc1` [Example 535, [4-(8-Cyclopentyl-7-oxo-7,8-dihydro-pyrido[2,3-d]pyrimidin-2-ylamino)-phenyl]-carbamic acid tert-butyl ester] are 63.5 nM, 74 nM, 88.7 nM, 220 nM and 145 nM.
For `O=c1ccc2cnc(Nc3ccc4[nH]ncc4c3)nc2n1C1CCCC1` [Example 536, 8-Cyclopentyl-2-(1H-indazol-5-ylamino)-8H-pyrido[2,3-d]pyrimidin-7-one], the IC50 was 25 nM at cdk4/D; 19.7 nM at Cdk5/p25; 14 nM at cdk2/cyclinE; 31.5 nM at cdk2/cyclinA; 18.5 nM at cdc2/cyclinB.
The corresponding values for `O=c1ccc2cnc(Nc3ccc4[nH]nnc4c3)nc2n1C1CCCC1` [Example 537, 2-(1H-Benzotriazol-5-ylamino)-8-cyclopentyl-8H-pyrido[2,3-d]pyrimidin-7-one] are 42 nM, 12.3 nM, 8.5 nM, 25.5 nM and 49.5 nM.
With `O=c1ccc2cnc(Nc3ccc(O)cc3F)nc2n1C1CCCC1` [Example 538, 8-Cyclopentyl-2-(2-fluoro-4-hydroxy-phenylamino)-8H-pyrido[2,3-d]pyrimidin-7-one], the IC50 is 338 nM on cdk4/D; 145 nM on Cdk5/p25; 72.7 nM at cdk2/cyclinE; 320 nM at cdk2/cyclinA; 425 nM at cdc2/cyclinB.
The corresponding values for `O=c1ccc2cnc(Nc3ccc(O)c(Cl)c3)nc2n1C1CCCC1` [Example 539, 2-(3-Chloro-4-hydroxy-phenylamino)-8-cyclopentyl-8H-pyrido[2,3-d]pyrimidin-7-one] are 23.5 nM, 23.5 nM, 14.3 nM, 33.5 nM and 28 nM.
Regarding `O=c1ccc2cnc(Nc3cc(Cl)c(O)c(Cl)c3)nc2n1C1CCCC1` [Example 540, 8-Cyclopentyl-2-(3,5-dichloro-4-hydroxy-phenylamino)-8H-pyrido[2,3-d]pyrimidin-7-one], the IC50 stood at 710 nM at cdk4/D; 200 nM against Cdk5/p25; 61.7 nM against cdk2/cyclinE; 170 nM on cdk2/cyclinA; 310 nM on cdc2/cyclinB.
On the same counts, the results for `COc1ccc(Nc2ncc3ccc(=O)n(C4CCCC4)c3n2)cc1OC` [Example 541, 8-Cyclopentyl-2-(3,4-dimethoxy-phenylamino)-8H-pyrido[2,3-d]pyrimidin-7-one] are 110 nM, 13.5 nM, 22.3 nM, 41.5 nM and 59.5 nM.
On the same counts, the results for `COc1cc(Nc2ncc3ccc(=O)n(C4CCCC4)c3n2)cc(C(F)(F)F)c1` [Example 543, 8-Cyclopentyl-2-(3-methoxy-5-trifluoromethyl-phenylamino)-8H-pyrido[2,3-d]pyrimidin-7-one] are 280 nM, 210 nM, 500 nM, 1700 nM and 550 nM.
With `Cc1cc(C)cc(Nc2ncc3ccc(=O)n(C4CCCC4)c3n2)c1` [Example 544, 8-Cyclopentyl-2-(3,5-dimethyl-phenylamino)-8H-pyrido[2,3-d]pyrimidin-7-one], the IC50 at cdk4/D stood at 120 nM; on Cdk5/p25, 23 nM; on cdk2/cyclinE, 82 nM; on cdk2/cyclinA it was 350 nM; on cdc2/cyclinB, 85 nM.
